The source made the active and inactive calls. The calls are words filed in the database; no cut-off is given here.
How the values were obtained:
[1] = Tmax in ICR mouse at 3 mg/kg, po measured upto 24 hrs by LC-MS analysis; assay type: ADME, organism-based; conditions: in vivo
[2] = Tmax in Sprague-Dawley rat at 3 mg/kg, po measured upto 24 hrs by LC-MS analysis; assay type: ADME, organism-based; conditions: in vivo
[3] = Half life in ICR mouse at 1 mg/kg, iv measured upto 24 hrs by LC-MS analysis; assay type: ADME, organism-based; conditions: in vivo
[4] = biological target: Tyrosine-protein kinase Mer (Homo sapiens, UniProt Q12866); assay: Inhibition of recombinant human MER (557 to 882 residues) using GGMEDIYFEFMGG as substrate incubated for 40 mins in presence of [gamma-33ATP by scintillation counting based radiometry assay
[5] = biological target: ALK tyrosine kinase receptor (Homo sapiens, UniProt Q9UM73); assay: Inhibition of human ALK (1058 to end residues) using KKKSPGEYVNIEFG as substrate incubated for 40 mins in presence of [gamma-33ATP] by scintillation counting based radiometry assay
[6] = biological target: Vascular endothelial growth factor receptor 1 (Homo sapiens, UniProt P17948); assay: Inhibition of recombinant human FLT1 (783 to end residues) using KKKSPGEYVNIEFG as substrate incubated for 40 mins in presence of [gamma-33ATP] by scintillation counting based radiometry assay
[7] = biological target: Mast/stem cell growth factor receptor Kit (Homo sapiens, UniProt P10721); assay: Inhibition of recombinant human C-Kit using poly(Glu, Tyr) 4:1 as substrate incubated for 40 mins in presence of [gamma-33ATP] by scintillation counting based radiometry assay
[8] = biological target: Tyrosine-protein kinase ABL1 (Homo sapiens, UniProt P00519); assay: Inhibition of human recombinant ABL (27 to end residues) using EAIYAAPFAKKK as substrate incubated for 40 mins in presence of [gamma33P-ATP] by radiometric scintillation counting analysis
[9] = biological target: Serine/threonine-protein kinase A-Raf (Homo sapiens, UniProt P10398); assay: Inhibition of recombinant human A-Raf (273 to end residues) using myelin basic protein as substrate incubated for 40 mins in presence of [gamma-33ATP] by scintillation counting based radiometry assay
[10] = biological target: Tyrosine-protein kinase SYK (Homo sapiens, UniProt P43405); assay: Inhibition of recombinant human full length SYK using poly(Glu, Tyr) 4:1 as substrate incubated for 40 mins in presence of [gamma33P]ATP by scintillation counting based radiometry assay
[11] = biological target: Ribosomal protein S6 kinase alpha-1 (Homo sapiens, UniProt Q15418); assay: Inhibition of recombinant full length human Rsk1 using KKKNRTLSVA as substrate incubated for 40 mins in presence of [gamma33P]ATP by scintillation counting based radiometry assay
[12] = biological target: Cyclin-dependent kinase 1/cyclin B1 (Homo sapiens, UniProt P06493); assay: Inhibition of recombinant full length human CDK1/CyclinB using Histone H1 as substrate incubated for 40 mins in presence of [gamma-33ATP] by scintillation counting based radiometry assay; assay type: protein-complex assay
CDK6/cyclin D3 = CDK6/cyclin D3 (Homo sapiens, UniProt Q00534); assay: Inhibition of recombinant full length human CDK6/CyclinD3C using Rb fragment as substrate incubated for 40 mins in presence of [gamma-33ATP] by scintillation counting based radiometry assay; assay type: protein-complex assay
CDK12/Cyclin K = CDK12/Cyclin K (Homo sapiens, UniProt Q9NYV4); assay: Inhibition of recombinant full length human CDK12/CyclinK using RSRSRSRSRSRSR as substrate incubated for 40 mins in presence of [gamma-33ATP] by scintillation counting based radiometry assay; assay type: protein-complex assay
[13] = biological target: T1, Tyrosine-protein kinase receptor UFO (Mus musculus) (UniProt Q00993); assay: Inhibition of AXL in mouse BaF3/TEL-AXL cells assessed as reduction in Gas6-induced phosphorylation of AKT at 0.5 to 50 nM preincubated for 2 hrs followed by Gas6 stimulation for 15 mins by Western blotting analysis; assay type: cell-based; conditions: dose 0.5-50 nM
T1 sequence (whole entry): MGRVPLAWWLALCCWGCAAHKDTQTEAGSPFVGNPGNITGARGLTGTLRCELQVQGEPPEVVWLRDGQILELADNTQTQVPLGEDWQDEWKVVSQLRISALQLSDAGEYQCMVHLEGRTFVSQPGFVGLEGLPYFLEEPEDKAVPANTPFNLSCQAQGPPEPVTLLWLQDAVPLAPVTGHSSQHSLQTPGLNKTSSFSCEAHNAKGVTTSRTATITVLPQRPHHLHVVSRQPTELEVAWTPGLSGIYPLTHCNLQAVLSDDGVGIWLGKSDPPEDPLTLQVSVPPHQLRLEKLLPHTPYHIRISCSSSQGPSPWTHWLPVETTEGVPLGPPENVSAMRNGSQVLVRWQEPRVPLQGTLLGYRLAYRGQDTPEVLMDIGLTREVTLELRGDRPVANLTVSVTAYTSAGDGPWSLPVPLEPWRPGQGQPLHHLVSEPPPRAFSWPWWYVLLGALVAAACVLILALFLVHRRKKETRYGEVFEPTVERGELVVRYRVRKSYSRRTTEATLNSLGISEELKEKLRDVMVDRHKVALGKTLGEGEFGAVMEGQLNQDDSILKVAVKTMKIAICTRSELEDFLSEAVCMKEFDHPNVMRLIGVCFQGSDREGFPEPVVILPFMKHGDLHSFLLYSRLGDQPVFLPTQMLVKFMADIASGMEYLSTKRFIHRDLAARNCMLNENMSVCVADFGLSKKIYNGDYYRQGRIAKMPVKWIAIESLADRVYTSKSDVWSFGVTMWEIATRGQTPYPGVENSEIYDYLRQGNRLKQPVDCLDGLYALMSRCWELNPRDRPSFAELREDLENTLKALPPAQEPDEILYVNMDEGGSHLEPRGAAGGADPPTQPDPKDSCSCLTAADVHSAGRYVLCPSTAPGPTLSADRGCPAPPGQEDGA

[14] = biological target: Hepatocyte growth factor receptor (Homo sapiens, UniProt P08581); assay: Inhibition of MET signaling in human MKN45 cells assessed as reduction in phosphorylation of MET after 2 hrs by Western blotting analysis; assay type: cell-based; conditions: MKN-45, dose 10-100 nM
HCC78 = assay: Antiproliferative activity against human HCC78 cells incubated for 72 hrs by SRB or CCK8 assay; assay type: functional, cell-based; conditions: HCC78, 72 h
SNU-449 = assay: Antiproliferative activity against human SNU-449 cells at 5 to 125 uM incubated for 72 hrs by SRB or CCK8 assay; assay type: functional, cell-based; conditions: dose 5-125 µM
BaF3 = assay: Antitumor activity against mouse BaF3/TEL-AXL cells xenografted in BALB/c nude mouse assessed as tumor growth inhibition at 1 mg/kg, po administered once daily for 14 days by caliper method; assay type: functional; conditions: 336 h, time 14 day, read-out: TGI
U-87 MG [15] = assay: Antitumor activity against human U-87MG cells xenografted in BALB/c nude mouse assessed as tumor growth inhibition at 25 mg/kg, po administered once daily for 14 days by caliper method; assay type: functional, U-87MG ATCC; conditions: 336 h, time 14 day, read-out: TGI
U-87 MG [16] = assay: Antitumor activity against human U-87MG cells xenografted in po dosed BALB/c nude mouse assessed as tumor growth inhibition administered once daily for 14 days by caliper method; assay type: functional, organism-based; conditions: U-87MG ATCC, dose 5-100 mg/kg, time 14.0 day

Ribosomal protein S6 kinase alpha-1, sequence (Q15418 whole entry): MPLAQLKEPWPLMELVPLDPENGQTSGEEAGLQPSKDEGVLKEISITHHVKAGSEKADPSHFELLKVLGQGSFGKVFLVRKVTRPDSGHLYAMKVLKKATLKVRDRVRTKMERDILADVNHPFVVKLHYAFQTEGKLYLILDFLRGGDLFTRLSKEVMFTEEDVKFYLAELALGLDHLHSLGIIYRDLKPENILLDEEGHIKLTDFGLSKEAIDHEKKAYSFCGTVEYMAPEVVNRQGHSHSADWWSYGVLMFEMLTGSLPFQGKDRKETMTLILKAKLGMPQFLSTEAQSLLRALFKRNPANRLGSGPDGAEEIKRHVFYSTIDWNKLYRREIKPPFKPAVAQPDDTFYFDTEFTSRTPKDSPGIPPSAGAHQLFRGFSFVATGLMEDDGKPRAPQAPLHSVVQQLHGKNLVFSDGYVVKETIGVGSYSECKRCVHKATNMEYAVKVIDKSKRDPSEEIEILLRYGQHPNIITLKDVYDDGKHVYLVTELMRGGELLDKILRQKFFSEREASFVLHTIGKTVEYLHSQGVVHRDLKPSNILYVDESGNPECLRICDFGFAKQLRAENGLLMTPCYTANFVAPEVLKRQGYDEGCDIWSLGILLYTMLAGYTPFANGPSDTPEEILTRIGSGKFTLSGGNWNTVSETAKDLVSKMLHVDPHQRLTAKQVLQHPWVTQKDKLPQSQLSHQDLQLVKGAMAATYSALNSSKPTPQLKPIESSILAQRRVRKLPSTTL
ALK tyrosine kinase receptor, sequence (Q9UM73 whole entry): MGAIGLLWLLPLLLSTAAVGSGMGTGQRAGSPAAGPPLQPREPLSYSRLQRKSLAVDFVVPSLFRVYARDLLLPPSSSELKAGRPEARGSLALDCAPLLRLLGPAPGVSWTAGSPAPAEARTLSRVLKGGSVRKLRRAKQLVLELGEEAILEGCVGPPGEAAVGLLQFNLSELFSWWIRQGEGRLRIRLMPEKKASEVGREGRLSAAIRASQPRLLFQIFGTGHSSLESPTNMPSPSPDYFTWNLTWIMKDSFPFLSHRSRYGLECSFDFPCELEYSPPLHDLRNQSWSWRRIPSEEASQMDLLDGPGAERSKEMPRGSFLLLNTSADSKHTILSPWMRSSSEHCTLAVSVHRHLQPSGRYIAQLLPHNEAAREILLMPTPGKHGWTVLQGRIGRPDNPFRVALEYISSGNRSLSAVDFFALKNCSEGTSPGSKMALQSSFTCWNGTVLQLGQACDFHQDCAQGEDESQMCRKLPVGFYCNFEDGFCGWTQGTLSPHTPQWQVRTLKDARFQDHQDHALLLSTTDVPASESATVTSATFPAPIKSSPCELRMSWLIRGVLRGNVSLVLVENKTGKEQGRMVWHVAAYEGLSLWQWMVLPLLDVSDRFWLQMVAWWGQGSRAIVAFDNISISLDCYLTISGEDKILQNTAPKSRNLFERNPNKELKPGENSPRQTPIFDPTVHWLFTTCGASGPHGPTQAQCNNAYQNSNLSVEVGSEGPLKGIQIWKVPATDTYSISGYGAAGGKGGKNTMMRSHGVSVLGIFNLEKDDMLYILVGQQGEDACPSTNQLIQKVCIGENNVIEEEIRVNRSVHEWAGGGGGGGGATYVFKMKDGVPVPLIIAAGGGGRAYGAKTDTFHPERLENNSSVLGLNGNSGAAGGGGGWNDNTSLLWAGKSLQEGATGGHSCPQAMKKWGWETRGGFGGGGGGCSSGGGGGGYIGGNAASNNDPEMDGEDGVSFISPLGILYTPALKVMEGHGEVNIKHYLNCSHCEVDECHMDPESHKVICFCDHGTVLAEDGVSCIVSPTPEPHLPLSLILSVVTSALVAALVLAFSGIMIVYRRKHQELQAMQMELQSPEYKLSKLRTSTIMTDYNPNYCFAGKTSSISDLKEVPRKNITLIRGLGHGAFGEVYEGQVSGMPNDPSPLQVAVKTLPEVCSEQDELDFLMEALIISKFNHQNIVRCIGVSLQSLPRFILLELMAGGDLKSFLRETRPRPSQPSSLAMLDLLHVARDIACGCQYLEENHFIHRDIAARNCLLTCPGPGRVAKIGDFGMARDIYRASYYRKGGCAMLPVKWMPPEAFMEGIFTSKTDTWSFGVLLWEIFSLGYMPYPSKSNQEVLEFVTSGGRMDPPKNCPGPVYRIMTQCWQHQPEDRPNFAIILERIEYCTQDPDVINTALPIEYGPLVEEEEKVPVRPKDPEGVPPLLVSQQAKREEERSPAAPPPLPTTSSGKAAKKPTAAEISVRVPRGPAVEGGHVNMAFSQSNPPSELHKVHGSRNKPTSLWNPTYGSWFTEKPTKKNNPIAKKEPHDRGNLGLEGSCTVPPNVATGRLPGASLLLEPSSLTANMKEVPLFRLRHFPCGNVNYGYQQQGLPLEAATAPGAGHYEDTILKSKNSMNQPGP
Serine/threonine-protein kinase A-Raf, sequence (P10398 whole entry): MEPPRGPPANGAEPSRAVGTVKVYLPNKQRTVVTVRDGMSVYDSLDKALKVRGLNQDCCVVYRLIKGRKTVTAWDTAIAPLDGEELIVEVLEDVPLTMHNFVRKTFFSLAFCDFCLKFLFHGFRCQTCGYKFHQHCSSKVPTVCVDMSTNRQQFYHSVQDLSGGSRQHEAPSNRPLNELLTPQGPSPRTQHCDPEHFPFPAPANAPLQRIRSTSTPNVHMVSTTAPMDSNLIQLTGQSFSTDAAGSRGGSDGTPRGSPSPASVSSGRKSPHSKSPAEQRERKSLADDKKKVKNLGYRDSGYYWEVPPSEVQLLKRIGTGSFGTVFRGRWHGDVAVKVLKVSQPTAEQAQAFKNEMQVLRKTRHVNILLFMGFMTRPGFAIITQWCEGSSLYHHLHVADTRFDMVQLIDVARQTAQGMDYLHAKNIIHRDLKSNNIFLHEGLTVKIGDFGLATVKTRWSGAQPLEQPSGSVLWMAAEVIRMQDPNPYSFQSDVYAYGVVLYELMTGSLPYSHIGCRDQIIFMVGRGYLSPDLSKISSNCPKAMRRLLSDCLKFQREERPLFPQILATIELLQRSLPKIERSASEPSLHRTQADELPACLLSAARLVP
Tyrosine-protein kinase Mer, sequence (Q12866 whole entry, the tested form may be a part): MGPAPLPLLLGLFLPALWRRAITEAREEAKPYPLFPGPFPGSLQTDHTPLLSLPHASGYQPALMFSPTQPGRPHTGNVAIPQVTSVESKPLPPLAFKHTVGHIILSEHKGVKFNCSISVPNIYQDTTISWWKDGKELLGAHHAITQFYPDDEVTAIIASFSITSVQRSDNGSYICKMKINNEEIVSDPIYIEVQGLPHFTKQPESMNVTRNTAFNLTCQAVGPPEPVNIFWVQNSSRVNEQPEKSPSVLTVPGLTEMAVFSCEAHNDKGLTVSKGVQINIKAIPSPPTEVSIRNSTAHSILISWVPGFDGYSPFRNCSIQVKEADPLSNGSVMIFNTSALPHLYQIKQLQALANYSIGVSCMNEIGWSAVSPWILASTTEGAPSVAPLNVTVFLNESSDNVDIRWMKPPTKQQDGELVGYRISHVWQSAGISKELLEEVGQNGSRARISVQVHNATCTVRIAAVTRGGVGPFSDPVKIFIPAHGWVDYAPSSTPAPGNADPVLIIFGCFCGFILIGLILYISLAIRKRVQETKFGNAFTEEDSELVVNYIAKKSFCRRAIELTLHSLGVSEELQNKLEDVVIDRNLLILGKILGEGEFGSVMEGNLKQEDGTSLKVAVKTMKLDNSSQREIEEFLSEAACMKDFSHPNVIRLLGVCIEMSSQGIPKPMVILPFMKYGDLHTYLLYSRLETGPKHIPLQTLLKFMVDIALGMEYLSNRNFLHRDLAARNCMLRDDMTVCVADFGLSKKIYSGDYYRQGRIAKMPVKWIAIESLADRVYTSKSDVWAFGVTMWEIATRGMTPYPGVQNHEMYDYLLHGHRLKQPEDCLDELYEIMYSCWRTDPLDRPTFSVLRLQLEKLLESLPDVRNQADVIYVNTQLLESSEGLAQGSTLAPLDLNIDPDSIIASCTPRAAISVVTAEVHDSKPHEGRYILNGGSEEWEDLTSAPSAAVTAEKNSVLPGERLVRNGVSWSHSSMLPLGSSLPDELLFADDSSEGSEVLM
Mast/stem cell growth factor receptor Kit, sequence (P10721 whole entry): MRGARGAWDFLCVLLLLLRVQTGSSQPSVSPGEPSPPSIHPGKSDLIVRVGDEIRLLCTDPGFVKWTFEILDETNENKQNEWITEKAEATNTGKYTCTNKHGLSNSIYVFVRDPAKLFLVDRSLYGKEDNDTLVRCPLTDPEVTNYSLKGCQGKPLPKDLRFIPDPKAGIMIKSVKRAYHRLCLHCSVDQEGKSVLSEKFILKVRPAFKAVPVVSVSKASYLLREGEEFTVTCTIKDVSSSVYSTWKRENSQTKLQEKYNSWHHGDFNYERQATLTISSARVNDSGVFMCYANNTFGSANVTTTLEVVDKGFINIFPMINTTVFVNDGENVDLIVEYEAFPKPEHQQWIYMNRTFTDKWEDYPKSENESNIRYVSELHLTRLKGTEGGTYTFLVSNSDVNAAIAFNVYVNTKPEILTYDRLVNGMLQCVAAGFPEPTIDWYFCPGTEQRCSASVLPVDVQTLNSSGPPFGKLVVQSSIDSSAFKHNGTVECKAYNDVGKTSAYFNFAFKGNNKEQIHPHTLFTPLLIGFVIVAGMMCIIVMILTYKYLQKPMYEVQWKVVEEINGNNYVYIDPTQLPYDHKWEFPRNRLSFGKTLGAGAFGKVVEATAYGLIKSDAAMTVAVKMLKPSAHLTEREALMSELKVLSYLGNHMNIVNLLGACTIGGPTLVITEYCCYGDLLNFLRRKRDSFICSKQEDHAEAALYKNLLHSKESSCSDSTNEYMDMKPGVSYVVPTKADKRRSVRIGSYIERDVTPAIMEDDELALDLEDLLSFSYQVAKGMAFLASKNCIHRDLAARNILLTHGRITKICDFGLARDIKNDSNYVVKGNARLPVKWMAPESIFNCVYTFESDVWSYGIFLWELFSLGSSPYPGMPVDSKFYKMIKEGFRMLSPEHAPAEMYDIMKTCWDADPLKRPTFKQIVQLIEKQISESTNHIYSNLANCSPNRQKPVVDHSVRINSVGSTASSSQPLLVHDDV

Tmax [1]: 1.67 h | Tmax [2]: 1.17 h | half-life [3]: 5.57 h | IC50 [4]: < 10 nM | IC50 [5]: > 1000 nM | IC50 [6]: > 1000 nM | IC50 [7]: > 1000 nM | IC50 [8]: > 1000 nM | IC50 [9]: > 1000 nM | IC50 [10]: > 100 nM | IC50 [11]: > 1000 nM | IC50 [12]: > 1000 nM | IC50 (CDK6/cyclin D3): > 1000 nM | IC50 (CDK12/Cyclin K): > 1000 nM | inhibition [13]: Active | inhibition [14]: Dose-Dependent Effect | IC50 (HCC78): > 10000 nM
Compound: CC(C)n1cc(C(=O)Nc2ccc(Oc3ccnc(NC(=O)C4CC4)c3)c(F)c2)c(=O)n(-c2ccc(F)cc2)c1=O
Activity (SNU-449): inactive | inhibition in vivo at 1 mg/kg (BaF3): 90.9% | inhibition in vivo at 25 mg/kg (U-87 MG [15]): 89.8% | Activity (U-87 MG [16]): Dose-Dependent Effect
